Test results from PubChem BioAssay AID2060503 (Molecular Pharmacology Branch, DTP, NCI, 2025).

Each compound was assayed on 817829-284-R-J1-PDC complex spheroids, viability (assay: Anticancer human tumor 817829-284-R-J1-PDC patient-derived colon adenocarcinoma cell line growth inhibition [GQUAD]). Settings: second compound 0.0316 µM; first compound 3.16 µM; active compounds read low.
Procedure, shortened: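 Multi-cell-type spheroids of tumor cells with HUVEC and mesenchymal stem cells, treated with drug combinations. Concentrations descend in half-log steps from near clinical Cmax, or from 10 microM where Cmax is unknown; viability read-out.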
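Note: spheroids exposed to agents for 7 days before readout; percent viability relative to DMSO vehicle control taken as 100%.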

SMILES	viability, T/C [%]
CC1COCCN1c1cc(-c2ccnn2C)c2ccnc(-c3ccn[nH]3)c2n1 (stereo unspecified) + CN(C)c1ccc(Nc2c3ccc(NC(=O)CCN4CCCC4)cc3nc3cc(NC(=O)CCN4CCCC4)ccc23)cc1	6.76
CC1COCCN1c1cc(C2(O)CC3CCC(C2)O3)c2cnn(-c3ccn[nH]3)c2n1 (stereo unspecified) + CN(C)c1ccc(Nc2c3ccc(NC(=O)CCN4CCCC4)cc3nc3cc(NC(=O)CCN4CCCC4)ccc23)cc1	6.14
CC1COCCN1c1cc(C2(S(C)(=N)=O)CC2)nc(-c2ccnc3[nH]ccc23)n1 (stereo unspecified) + CN(C)c1ccc(Nc2c3ccc(NC(=O)CCN4CCCC4)cc3nc3cc(NC(=O)CCN4CCCC4)ccc23)cc1	11.2
COc1ccc([C@@H](O)c2cc(-c3ncnc4cc(N5CCOCC5)ccc34)c(F)cc2Cl)nn1 + CN(C)c1ccc(Nc2c3ccc(NC(=O)CCN4CCCC4)cc3nc3cc(NC(=O)CCN4CCCC4)ccc23)cc1	88

Same assay, conditions: second compound 0.0316 µM; first compound 10 µM; active compounds read low

SMILES	viability, T/C [%]
CC(C)n1c(=O)n(C)c2cnc3cc(F)c(-c4ccc(OCCCN5CCCCC5)nc4)cc3c21 + CN(C)c1ccc(Nc2c3ccc(NC(=O)CCN4CCCC4)cc3nc3cc(NC(=O)CCN4CCCC4)ccc23)cc1	116
CC1COCCN1c1cc(-c2ccnn2C)c2ccnc(-c3ccn[nH]3)c2n1 (stereo unspecified) + CN(C)c1ccc(Nc2c3ccc(NC(=O)CCN4CCCC4)cc3nc3cc(NC(=O)CCN4CCCC4)ccc23)cc1	6.4
CC1COCCN1c1cc(C2(O)CC3CCC(C2)O3)c2cnn(-c3ccn[nH]3)c2n1 (stereo unspecified) + CN(C)c1ccc(Nc2c3ccc(NC(=O)CCN4CCCC4)cc3nc3cc(NC(=O)CCN4CCCC4)ccc23)cc1	5.19
CC1COCCN1c1cc(C2(S(C)(=N)=O)CC2)nc(-c2ccnc3[nH]ccc23)n1 (stereo unspecified) + CN(C)c1ccc(Nc2c3ccc(NC(=O)CCN4CCCC4)cc3nc3cc(NC(=O)CCN4CCCC4)ccc23)cc1	7.5
COc1ccc([C@@H](O)c2cc(-c3ncnc4cc(N5CCOCC5)ccc34)c(F)cc2Cl)nn1 + CN(C)c1ccc(Nc2c3ccc(NC(=O)CCN4CCCC4)cc3nc3cc(NC(=O)CCN4CCCC4)ccc23)cc1	58.1

Same assay, conditions: second compound 0.1 µM; first compound 0.000999 µM; active compounds read low

SMILES	viability, T/C [%]
Cn1ncnc1[C@H]1c2n[nH]c(=O)c3cc(F)cc(c23)N[C@@H]1c1ccc(F)cc1 + CN(C)c1ccc(Nc2c3ccc(NC(=O)CCN4CCCC4)cc3nc3cc(NC(=O)CCN4CCCC4)ccc23)cc1	95.6

Same assay, conditions: second compound 0.1 µM; first compound 0.00316 µM; active compounds read low

SMILES	viability, T/C [%]
Cn1ncnc1[C@H]1c2n[nH]c(=O)c3cc(F)cc(c23)N[C@@H]1c1ccc(F)cc1 + CN(C)c1ccc(Nc2c3ccc(NC(=O)CCN4CCCC4)cc3nc3cc(NC(=O)CCN4CCCC4)ccc23)cc1	105

Same assay, conditions: second compound 0.1 µM; first compound 0.00999 µM; active compounds read low

SMILES	viability, T/C [%]
Cn1ncnc1[C@H]1c2n[nH]c(=O)c3cc(F)cc(c23)N[C@@H]1c1ccc(F)cc1 + CN(C)c1ccc(Nc2c3ccc(NC(=O)CCN4CCCC4)cc3nc3cc(NC(=O)CCN4CCCC4)ccc23)cc1	95.4

Same assay, conditions: second compound 0.1 µM; first compound 0.0316 µM; active compounds read low

SMILES	viability, T/C [%]
CC(C)n1c(=O)n(C)c2cnc3cc(F)c(-c4ccc(OCCCN5CCCCC5)nc4)cc3c21 + CN(C)c1ccc(Nc2c3ccc(NC(=O)CCN4CCCC4)cc3nc3cc(NC(=O)CCN4CCCC4)ccc23)cc1	101
CC1COCCN1c1cc(-c2ccnn2C)c2ccnc(-c3ccn[nH]3)c2n1 (stereo unspecified) + CN(C)c1ccc(Nc2c3ccc(NC(=O)CCN4CCCC4)cc3nc3cc(NC(=O)CCN4CCCC4)ccc23)cc1	43.7
CC1COCCN1c1cc(C2(O)CC3CCC(C2)O3)c2cnn(-c3ccn[nH]3)c2n1 (stereo unspecified) + CN(C)c1ccc(Nc2c3ccc(NC(=O)CCN4CCCC4)cc3nc3cc(NC(=O)CCN4CCCC4)ccc23)cc1	31.5
CC1COCCN1c1cc(C2(S(C)(=N)=O)CC2)nc(-c2ccnc3[nH]ccc23)n1 (stereo unspecified) + CN(C)c1ccc(Nc2c3ccc(NC(=O)CCN4CCCC4)cc3nc3cc(NC(=O)CCN4CCCC4)ccc23)cc1	90.1
COc1ccc([C@@H](O)c2cc(-c3ncnc4cc(N5CCOCC5)ccc34)c(F)cc2Cl)nn1 + CN(C)c1ccc(Nc2c3ccc(NC(=O)CCN4CCCC4)cc3nc3cc(NC(=O)CCN4CCCC4)ccc23)cc1	86.8
Cn1ncnc1[C@H]1c2n[nH]c(=O)c3cc(F)cc(c23)N[C@@H]1c1ccc(F)cc1 + CN(C)c1ccc(Nc2c3ccc(NC(=O)CCN4CCCC4)cc3nc3cc(NC(=O)CCN4CCCC4)ccc23)cc1	94

Same assay, conditions: second compound 0.1 µM; first compound 0.0999 µM; active compounds read low

SMILES	viability, T/C [%]
Cn1ncnc1[C@H]1c2n[nH]c(=O)c3cc(F)cc(c23)N[C@@H]1c1ccc(F)cc1 + CN(C)c1ccc(Nc2c3ccc(NC(=O)CCN4CCCC4)cc3nc3cc(NC(=O)CCN4CCCC4)ccc23)cc1	86.2

Same assay, conditions: second compound 0.1 µM; first compound 0.1 µM; active compounds read low

SMILES	viability, T/C [%]
CC(C)n1c(=O)n(C)c2cnc3cc(F)c(-c4ccc(OCCCN5CCCCC5)nc4)cc3c21 + CN(C)c1ccc(Nc2c3ccc(NC(=O)CCN4CCCC4)cc3nc3cc(NC(=O)CCN4CCCC4)ccc23)cc1	107
CC1COCCN1c1cc(-c2ccnn2C)c2ccnc(-c3ccn[nH]3)c2n1 (stereo unspecified) + CN(C)c1ccc(Nc2c3ccc(NC(=O)CCN4CCCC4)cc3nc3cc(NC(=O)CCN4CCCC4)ccc23)cc1	19.4
CC1COCCN1c1cc(C2(O)CC3CCC(C2)O3)c2cnn(-c3ccn[nH]3)c2n1 (stereo unspecified) + CN(C)c1ccc(Nc2c3ccc(NC(=O)CCN4CCCC4)cc3nc3cc(NC(=O)CCN4CCCC4)ccc23)cc1	15.1
CC1COCCN1c1cc(C2(S(C)(=N)=O)CC2)nc(-c2ccnc3[nH]ccc23)n1 (stereo unspecified) + CN(C)c1ccc(Nc2c3ccc(NC(=O)CCN4CCCC4)cc3nc3cc(NC(=O)CCN4CCCC4)ccc23)cc1	95.4
COc1ccc([C@@H](O)c2cc(-c3ncnc4cc(N5CCOCC5)ccc34)c(F)cc2Cl)nn1 + CN(C)c1ccc(Nc2c3ccc(NC(=O)CCN4CCCC4)cc3nc3cc(NC(=O)CCN4CCCC4)ccc23)cc1	100

Same assay, conditions: second compound 0.1 µM; first compound 0.316 µM; active compounds read low

SMILES	viability, T/C [%]
CC(C)n1c(=O)n(C)c2cnc3cc(F)c(-c4ccc(OCCCN5CCCCC5)nc4)cc3c21 + CN(C)c1ccc(Nc2c3ccc(NC(=O)CCN4CCCC4)cc3nc3cc(NC(=O)CCN4CCCC4)ccc23)cc1	94.3
CC1COCCN1c1cc(-c2ccnn2C)c2ccnc(-c3ccn[nH]3)c2n1 (stereo unspecified) + CN(C)c1ccc(Nc2c3ccc(NC(=O)CCN4CCCC4)cc3nc3cc(NC(=O)CCN4CCCC4)ccc23)cc1	9.94
CC1COCCN1c1cc(C2(O)CC3CCC(C2)O3)c2cnn(-c3ccn[nH]3)c2n1 (stereo unspecified) + CN(C)c1ccc(Nc2c3ccc(NC(=O)CCN4CCCC4)cc3nc3cc(NC(=O)CCN4CCCC4)ccc23)cc1	8.31
CC1COCCN1c1cc(C2(S(C)(=N)=O)CC2)nc(-c2ccnc3[nH]ccc23)n1 (stereo unspecified) + CN(C)c1ccc(Nc2c3ccc(NC(=O)CCN4CCCC4)cc3nc3cc(NC(=O)CCN4CCCC4)ccc23)cc1	82.3
COc1ccc([C@@H](O)c2cc(-c3ncnc4cc(N5CCOCC5)ccc34)c(F)cc2Cl)nn1 + CN(C)c1ccc(Nc2c3ccc(NC(=O)CCN4CCCC4)cc3nc3cc(NC(=O)CCN4CCCC4)ccc23)cc1	94.4
Cn1ncnc1[C@H]1c2n[nH]c(=O)c3cc(F)cc(c23)N[C@@H]1c1ccc(F)cc1 + CN(C)c1ccc(Nc2c3ccc(NC(=O)CCN4CCCC4)cc3nc3cc(NC(=O)CCN4CCCC4)ccc23)cc1	80

Same assay, conditions: second compound 0.1 µM; first compound 1 µM; active compounds read low

SMILES	viability, T/C [%]
CC(C)n1c(=O)n(C)c2cnc3cc(F)c(-c4ccc(OCCCN5CCCCC5)nc4)cc3c21 + CN(C)c1ccc(Nc2c3ccc(NC(=O)CCN4CCCC4)cc3nc3cc(NC(=O)CCN4CCCC4)ccc23)cc1	101
